# Reference: patent publication US10561638B2, “Methods for treating dependence” (Biotie Therapies, Inc., priority 2007, dated 2020)
# Key:
# [1] = tested on: spontaneous hypertensive rats; test: SCH-23390 pretreatment study in restrained SHRs; assay type: in vivo; settings: SCH-23390 iv, post-iv period
# Description: Male, spontaneous hypertensive rats (280-345 g; Charles River Labs, Kingston, N.Y.) were fasted overnight then anesthetized with ether. A femoral artery and femoral vein were cannulated with PE50 tubing for recording of blood pressure and administration of compounds, respectively. Animals were then placed in MAYO restrainers and their feet loosely taped to the restrainer. Heparinized saline (50 units sodium heparin/ml) was used to maintain patency of each cannula throughout the experiment. The following parameters were continuously recorded using Modular Instruments MI^2 BioReport™ software installed on an IBM personal computer: mean arterial pressure (MAP), heart rate (HR), and the change from baseline for each parameter at specified time points in the experiment.
# All compounds were dissolved on the day of use. Nepicastat was dissolved in deionized water (vehicle) to a free base concentration of 1 mg/ml. Oral dosing volume for nepicastat or vehicle was 10 ml/kg. SCH-23390 was dissolved in saline (vehicle) to a free base concentration of 0.2 mg/ml. […] or saline were administered intravenously as a bolus in a volume of 1.0 ml/kg followed by 0.2 ml flush of isotonic saline.
# Following surgical preparation, each animal was allowed a minimum one hour recovery period. Animals were randomly assigned to four treatment groups: vehicle (iv)/vehicle (po); vehicle (iv)/nepicastat (po); SCH-23390 (iv)/vehicle (po); or SCH-23390 (iv)/nepicastat (po). Once animals were stabilized (minimum one hour), baseline blood pressure and heart rate was determined by taking an average of each parameter over a 15 min period of time. Once baseline blood pressure and heart rate were established, animals were dosed intravenously with either SCH-23390 (200 μg/kg) or vehicle (saline, 1 ml/kg). Fifteen minutes later, animals were orally dosed with either nepicastat (10 mg/kg) or vehicle (deionized water, 10 ml/kg).
# Recorded parameters were measured 15 min prior to intravenous dosing to establish baseline blood pressure and heart rate. Recorded parameters were then measured at 5, 10, and 15 min following intravenous administration of SCH-23390 or vehicle. Following oral administration of nepicastat or vehicle, recorded parameters were measured at 15, 30, 60, 90, 120, 150, 180, 210, and 240 min.
# At the end of the experiment, each animal was anesthetized with halothane and euthanized via decapitation. The cortex, left ventricle (apex), and mesenteric artery were dissected out, weighed, and fixed in 0.4 M perchloric acid. Tissues were then frozen in liquid nitrogen and stored at −70° C. Biochemical analysis are performed on these tissues at a later date to determine catecholamine levels including dopamine and norepinephrine levels. Blood pressure and heart rate were analyzed separately. The change from baseline for blood pressure and heart rate were analyzed by an analysis of variance (ANOVA) with effects for treatment, time, and their interaction. This analysis was performed both for the post-iv time period and for the post-oral time period. Further analyses were performed at each time by an ANOVA with a main effect for […]. Pairwise comparisons were performed following each ANOVA by Fisher's LSD strategy with a Bonferroni correction when the overall treatment effect was not significant.
# An additional analysis was performed to compare the baseline means of each treatment group by an ANOVA with a main effect for treatment and subsequent pairwise comparisons. […]
# [2] = tested on: normotensive Wistar rats; test: 7 day radio-telemetry study in normotensive Wistar rats; settings: hydralazine 10 mg/kg
# Method: Male Crl:COBS(WI)BR rats of 15 weeks old were used.
# Both nepicastat and hydralazine were prepared in water with traces of Tween 80. All doses were given orally to the rat in 10 ml/kg and were expressed as free base equivalents.
# All values were expressed as means±SEM. Statistical significance was defined as a p level of less than 0.05.
# Body weights were recorded daily.
# [3] = cited from earlier work
# [4] = tested on: brain dopamine/norepinephrine ratio; test: Dopamine/norepinephrine ratios in the brain of rodents; settings: in vivo
# Method: Dopamine/norepinephrine ratios in the brain of rodents treated with nepicastat were determined. Dopamine/norepinephrine ratios increased in the brains of rodents treated with nepicastat or disulfuram.
# [5] = tested on: rats; test: Chronic (10 day) dosing behavioral tests in rats; settings: rat, in vivo
# Method: The effects of chronic dosing of nepicastat in rats were examined. Between three and thirteen days prior to the first dosing day the rats were placed inside the startle apparatus and after a five minute acclimation period they were presented with a 118 dB noise burst on average once a minute (a variable inter-trial interval ranging between 30 and 90 seconds will be used) for 20 minutes. The startle responses were measured and a mean for the last twenty startle response was calculated for each rat.
# The following behavioral tests were administered during and after chronic dosing; body core temperature, motor activity, acoustic startle reactivity, and pre-pulse inhibition of acoustic startle.
# The animals were tested in an enclosed room with a white noise generator running Motor activity tests were conducted immediately after the body core temperature reading taken on dosing day ten (about 3 hours and 35 minutes after the morning daily dose of nepicastat, and SKF-102698, and 20 minutes prior to the daily administration of clonidine and d-amphetamine on dosing day ten). Motor activity tests were run for one hour. A diagnostic program was run on each of the motor activity chambers prior to each test session to assure that the photo beams and light sensors were operating properly. […] D-amphetamine was used as the positive control for this assay.
# Rat body core temperatures were obtained by inserting the rectal probe 2 cm into the colon of each rat. Each rat's body core temperature was measured three times and the average of the three reading was calculated. Body core temperature readings were obtained immediately prior to the ten day chronic dosing schedule (to obtain a baseline), and three and half hour after the morning daily dose of nepicastat, and SKF-102698, and 15 minutes prior to the daily administration of clonidine and d-amphetamine, on dosing days one, five and ten. […] Both clonidine (an alpha2 agonist), and d-amphetamine (a dopamine releaser) were used as the positive controls for this assay.
# Acoustic startle reactivity (a series of muscle contractions elicited by an intense burst of noise with a rapid onset), and pre-pulse inhibition (sensorimotor gating measured by analyzing any decrease in startle reactivity which occurs when a startling stimulus is immediately preceded by a non startling stimulus) were both measured in eight SR-Lab (San Diego Instruments, San Diego, Calif.) test stations. The rats were placed individually in a Plexiglas cylinder (10 cm diameter) which was housed in a ventilated sound-attenuating enclosure. Acoustic noise bursts (a broad band noise with a rise time and fall time of 1 msec) were presented via a speaker mounted 30 cm above the animal. Also, these speakers produced a 68 dB level of background noise throughout all test sessions. A piezoelectric accelerometer attached below the plexiglass cylinder transduced the subject's movement into a voltage which was then rectified and digitized (on a scale from 0 to 4095) by a PC computer equipped with SR-Lab software and interface assembly. A decibel meter was used to calibrate the speakers in each of the eight test station to ±1% of the mean. Additionally, a SR-Lab calibrating instrument was used to calibrate each of the eight startle detection apparatuses to ±2% of the mean. Startle reactivity and pre-pulse inhibition tests were run concurrently immediately alter the motor activity test (about 4 hours and 40 minutes after the morning daily injection of nepicastat, and SKF-102698, and 10 minutes after a supplemental administration of clonidine and d-amphetamine on dosing day ten).
# [6] = tested on: Sprague Dawley rats; test: Locomotor activity and acoustic startle reactivity in rats, acute; assay type: in vivo; settings: nepicastat 3-100 mg/kg, SKF-102698 100 mg/kg, clonidine 40 μg/kg
# Description: Rats were housed under a normal light/dark cycle with lights on between 0900 Hrs. and 2100 Hrs. Animals were housed in pairs in standard metal wire cages, and food and water were allowed ad libitum. The locomotor activity boxes consisted of a Plexiglas box measuring 18''×18'' by 12'' high. Surrounding the Plexiglas® boxes were Omnitech Digiscan Monitors (model # RXXCM 16) which consisted of a one inch ban of photobeams and photosensors numbering 32 per box. The number of photobeam breaks were analyzed by an Omnitech Digiscan Analyzer (model # DCM-8). […] A piezoelectric accelerometer transforms the subject's movement into an arbitrary voltage on a scale of 0 to 4095. […] The average startle was calculated for each rat by taking the mean of startle number 11 through 45 (the first ten startles will be disregarded). Sixty-four of these rats were then placed in one of eight treatment groups such that each group had similar mean startle values. The eight treatment groups were as follows: […] […] The rats motor activity was monitored for four hours. […] To evaluate motor activity, horizontal activity (number of photobeams broken), number of movements, and rest time were measured. Each parameter was analyzed separately. […] The startle responses were analyzed using analysis of covariance. […] Therefore, the startle responses were analyzed by time. […]
# [7] = tested on: CD-1 (ICR) mice; test: Locomotor activity in mice, intraperitoneal; assay type: in vivo; settings: i.p.; nepicastat 3-100, SKF-102698 30 and 100, cocaine 30 mg/kg
# Description: Adult male CD-1 (ICR) mice (30-40 g on study day) were housed in groups of eight under a normal light/dark cycle with lights on between 0900 hr and 2100 hr. Food and water were allowed ad libitum. All animals were naive to drug treatment and behavioral testing. Each animal was only used once.
# Locomotor activity was monitored in an automated 14 station activity monitoring system (San Diego Instrument Co.). Each station consisted of a clear perspex cage (25 cm×45 cm×20 cm; w×1×h) placed within a metal frame containing 3 photoemmitors and 3 photodetectors spaced equally along the length of the wall. The bottom of each cage was lightly covered in clean cedar bedding.
# The mice were placed in the testing room at least 1 hr prior to testing. The mice were placed individually into one of the activity cages and allowed to explore for 30 min. […] Following a 60 minute pre-treatment period, motor activity was monitored for 180 minutes. Activity counts and ambulations (defined as a break of 2 consecutive photobeams) for each animal were recorded every 30 minutes.
# A repeated measures two-way analysis of variance (ANOVA) was performed using the overall ranked data (nonparametric technique) to test for the overall effects of treatment, time interval and treatment by time interval interaction. […]
# [8] = in vivo; cited from earlier work
smiles,measurement,setting,value
"CN1CCc2cc(Cl)c(O)cc2[C@@H](c2ccccc2)C1 [SCH-23390, reference compound]",decrease in mean arterial pressure,[1],5±1 mmHg
NNc1nncc2ccccc12 [hydralazine],heart rate,[2],varying degrees of tachycardia
same,time in which the hypotensive effect subsided,[2],10 h
same,maximal decrease in MBP,[2]; within 1 hr after dosing on day 1,−24 mmHg
CCN(CC)C(=S)SSC(=S)N(CC)CC [disulfuram],cocaine use vs placebo,[3]; disulfuram 250 mg per day,reduced cocaine use compared to placebo
same,elevations in plasma cocaine levels,"[3]; intranasal cocaine during disulfuram treatment, one controlled study",Six-fold elevations
same,dopamine/norepinephrine ratios in the brain,[4],increased
Clc1cccc(Cl)c1N=C1NCCN1 [clonidine],body core temperature,[5],significantly increasing body core temperature on day one
same,pre-pulse inhibition,[5],just significantly higher percent prepulse inhibition
same,"locomotor activity (horizontal activity, movements, rest time) vs vehicle",[6],significantly more horizontal activities at 2 and 2.5 hours
same,maximum and average acoustic startle response vs vehicle,[6],statistically significantly lower maximum and average startle responses
"COC(=O)[C@H]1[C@@H](OC(=O)c2ccccc2)C[C@@H]2CC[C@H]1N2C.Cl [cocaine, cocaine hydrochloride]",total activity counts and ambulations vs vehicle,[7],significantly greater total activity counts
same,elimination half-life,[8],about 90 min
